According to patent publication US9856262B2, “Analogues of 4H-pyrazolo[1,5-a] benzimidazole compound as PARP inhibitors” (HUBEI BIO-PHARMACEUTICAL INDUSTRIAL TECHNOLOGICAL INSTITUTE …, priority 2014, dated 2018):
Like-named read-outs stand apart in the source and are kept apart here.

Tests used:
[1] = target: T1, PARP-1 (Homo sapiens, UniProt P09874); experiment: PARP enzymatic assay (HT Universal Colorimetric PARP1 Assay Kit); format: biochemical; settings: read-out: PARP-1 enzymatic inhibition IC50
T1 construct: purchased
T1 sequence (P09874 whole entry): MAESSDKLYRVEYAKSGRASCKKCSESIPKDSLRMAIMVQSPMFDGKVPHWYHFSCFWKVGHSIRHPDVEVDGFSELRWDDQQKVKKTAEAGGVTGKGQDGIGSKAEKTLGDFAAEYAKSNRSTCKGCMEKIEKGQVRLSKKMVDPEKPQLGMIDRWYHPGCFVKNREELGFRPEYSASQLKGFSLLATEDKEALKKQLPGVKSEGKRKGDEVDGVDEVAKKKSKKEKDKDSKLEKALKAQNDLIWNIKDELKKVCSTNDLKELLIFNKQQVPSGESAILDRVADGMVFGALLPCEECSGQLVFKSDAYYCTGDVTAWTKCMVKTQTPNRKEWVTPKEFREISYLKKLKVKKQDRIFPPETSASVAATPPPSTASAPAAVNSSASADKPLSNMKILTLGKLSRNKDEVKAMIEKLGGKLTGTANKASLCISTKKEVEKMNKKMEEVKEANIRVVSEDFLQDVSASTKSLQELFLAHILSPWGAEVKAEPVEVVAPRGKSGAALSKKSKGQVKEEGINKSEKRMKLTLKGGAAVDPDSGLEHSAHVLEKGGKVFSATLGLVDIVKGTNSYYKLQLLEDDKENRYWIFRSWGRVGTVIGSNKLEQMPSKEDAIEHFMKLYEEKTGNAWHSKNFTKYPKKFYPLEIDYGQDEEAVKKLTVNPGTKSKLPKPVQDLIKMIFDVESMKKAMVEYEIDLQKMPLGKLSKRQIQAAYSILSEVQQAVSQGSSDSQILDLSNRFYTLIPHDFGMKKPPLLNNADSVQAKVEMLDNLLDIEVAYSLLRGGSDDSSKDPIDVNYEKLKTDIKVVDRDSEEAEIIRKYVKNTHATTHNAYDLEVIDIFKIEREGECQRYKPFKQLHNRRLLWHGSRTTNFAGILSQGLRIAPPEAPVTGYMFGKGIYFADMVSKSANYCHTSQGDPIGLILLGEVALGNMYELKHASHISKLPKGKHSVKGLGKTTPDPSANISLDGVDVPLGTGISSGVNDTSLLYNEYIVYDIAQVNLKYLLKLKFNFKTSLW
Experimental: PARP Enzymatic Assay (Following the Manual of HT Universal Colorimetric PARP1 Assay Kit).
Histone proteins were coated on a 96-well plate and incubated overnight at 4° C. After be washed 3 times with 200 ul PBST solution, the plate was blocked with a blocking solution and incubated for 30 min at room temperature, and then washed with PBST solution 3 times. A compound to be tested was treated and added to the plate. Thereafter, 20 μl of diluted PARP1 (1 nM) or 20 μl of PARP2 (3 nM) solution was added into the reaction system and incubated for 1 or 2 hours. 50 ul of streptavidin-HRP mixture (1:50) was added into the plate and incubated for 30 min at room temperature. The plate was then washed with three times with PBST buffer. 100 μl of (HRP) (Chemiluminescent substrate A and substrate B (1:1)) was added into the plate, and the plate was immediately read on a microplate reader (Envision, PerkinElmer).

[2] = system: HCC1937 cells; experiment: Cellular PARylation assay; format: cell-based
Experimental: Cellular PARylation Assay
HCC1937 cells were planted into 96 well plates at 4×10^4 cells/well and incubated at 37° C. in an incubator overnight. After being treated with a test compound for 30 min, cells were then treated with 1 mM H2O2 for 10 min. The cells were washed with 200 ul pre-chilled PBS twice and fixed with 100 ul pre-chilled methanol/acetone (7:3) on ice for 30 min. After being air-dried, the plates were blocked using PBS-Tween blocking solution (0.05%) with dissolved 5% nonfat dry milk for 30 min at room temperature. The cells were incubated with anti-PAR antibody 10H (1:100) at room temperature for 1 hour followed by washing with PBS-Tween20 for 3 times; and then added into a blocking solution including goat anti-mouse fluorescein isothiocyanate (FITC)-coupled secondary antibody and 1 μg/mL DAPI to incubate away from light at room temperature for 1 hour. After being washed with PBS-Tween20 for 3 times, the plate was analyzed with a fluorescence microplate counter (Flexstation III, Molecular Device).

[3] = Homo sapiens, HCC1937 cells, compound 30 min then 1 mM H2O2 10 min, read-out: cellular PARylation EC50
[4] = Homo sapiens, HCC1937, read-out: cellular PARylation EC50

SMILES | IC50 [1] [µM] | EC50 [2, 3] [µM] | EC50 ([2]; HCC1937 cells, compound 30 min then 1 mM H2O2 10 min, read-out: cellular PARylation EC50) [µM] | EC50 [2, 4] [µM]
CC1(c2cnn3c2[nH]c2cc(F)cc(C(N)=O)c23)CCN(Cc2ccc(=O)[nH]n2)CC1 [Example 87, 6-fluoro-3-(4-methyl-1-((6-oxo-1,6-dihydropyridazin-3-yl)methyl)piperidin-4-yl)-4H-benzo[4,5]imidazo[1,2-b]pyrazole-8-carboxamide] | 0.001 to 0.1 | 0.101 to 1 |  | 
CCN1CCCC(c2cnn3c2[nH]c2cc(F)cc(C(N)=O)c23)CC1 (centres unmarked) [Example 18, 3-(1-ethylazepan-4-yl)-6-fluoro-4H-benzo[4,5]imidazo[1,2-b]pyrazole-8-carboxamide] | 0.001 to 0.1 | 0.001 to 0.1 |  | 
CCN1C2CCC1CC(c1cnn3c1[nH]c1cc(F)cc(C(N)=O)c13)C2 (centres unmarked) [Example 35, 3-(8-ethyl-8-azabicyclo[3.2.1]octan-3-yl)-6-fluoro-4H-benzo[4,5]imidazo[1,2-b]pyrazole-8-carboxamide] | 0.001 to 0.1 | 0.101 to 1 |  | 
CC1(c2cnn3c2[nH]c2cc(F)cc(C(N)=O)c23)CCN(CC2CCOCC2)CC1 [Example 66, 6-fluoro-3-(4-methyl-1-((tetrahydro-2H-pyran-4-yl)methyl)piperidin-4-yl)-4H-benzo[4,5]imidazo[1,2-b]pyrazole-8-carboxamide] | 0.001 to 0.1 | 0.001 to 0.1 |  | 
COCCCN1CCC(C)(c2cnn3c2[nH]c2cc(F)cc(C(N)=O)c23)CC1 [Example 72, 6-fluoro-3-(1-(3-methoxypropyl)-4-methylpiperidin-4-yl)-4H-benzo[4,5]imidazo[1,2-b]pyrazole-8-carboxamide] | 0.001 to 0.1 | 0.001 to 0.1 |  | 
CCN1CCC(c2cnn3c2[nH]c2cc(F)cc(C(N)=O)c23)C1 (centres unmarked) [Example 21, 3-(1-ethylpyrrolidin-3-yl)-6-fluoro-4H-benzo[4,5]imidazo[1,2-b]pyrazole-8-carboxamide] | 0.001 to 0.1 | 0.001 to 0.1 |  | 
CC1(c2cnn3c2[nH]c2cc(F)cc(C(N)=O)c23)CCN(CC2CC2(F)F)C1 (centres unmarked) [Example 96, 3-(1-((2,2-difluorocyclopropyl)methyl)-3-methylpyrrolidin-3-yl)-6-fluoro-4H-benzo[4,5]imidazo[1,2-b]pyrazole-8-carboxamide] | 0.001 to 0.1 | 0.001 to 0.1 |  | 
COC(=O)C1(c2cnn3c2[nH]c2cc(F)cc(C(N)=O)c23)CCN(CC2CC2)CC1 [Example 110, methyl 4-(8-carbamoyl-6-fluoro-4H-benzo[4,5]imidazo[1,2-b]pyrazol-3-yl)-1-(cyclopropylmethyl)piperidine-4-carboxylate] | 0.001 to 0.1 |  |  | 0.101 to 1
CC1(c2cnn3c2[nH]c2cc(F)cc(C(N)=O)c23)CCN(CCC#N)CC1 [Example 88, 3-(1-(2-cyanoethyl)-4-methylpiperidin-4-yl)-6-fluoro-4H-benzo[4,5]imidazo[1,2-b]pyrazole-8-carboxamide] | 0.001 to 0.1 | 0.001 to 0.1 |  | 
CN1CCN(C(=O)c2cnn3c2[nH]c2cc(F)cc(C(N)=O)c23)CC1 [Example 49, 6-fluoro-3-(4-methylpiperazine-1-carbonyl)-4H-benzo[4,5]imidazo[1,2-b]pyrazole-8-carboxamide] | 0.001 to 0.1 | 0.101 to 1 |  | 
CCN1CCC(CN2CCC(C)(c3cnn4c3[nH]c3cc(F)cc(C(N)=O)c34)CC2)CC1 [Example 78, 3-(1-((1-ethylpiperidin-4-yl)methyl)-4-methylpiperidin-4-yl)-6-fluoro-4H-benzo[4,5]imidazo[1,2-b]pyrazole-8-carboxamide] | 0.001 to 0.1 | 0.001 to 0.1 |  | 
Cc1ncc(CN2CCC(C)(c3cnn4c3[nH]c3cc(F)cc(C(N)=O)c34)CC2)n1C [Example 85, 3-(1-((1,2-dimethyl-1H-imidazol-5-yl)methyl)-4-methylpiperidin-4-yl)-6-fluoro-4H-benzo[4,5]imidazo[1,2-b]pyrazole-8-carboxamide] | 0.001 to 0.1 | 0.001 to 0.1 |  | 
CN1CCCC(c2cnn3c2[nH]c2cc(F)cc(C(N)=O)c23)CC1 (centres unmarked) [Example 19, 6-fluoro-3-(1-methylazepan-4-yl)-4H-benzo[4,5]imidazo[1,2-b]pyrazole-8-carboxamide] | 0.001 to 0.1 | 0.001 to 0.1 |  | 
Cc1nn2c([nH]c3cc(F)cc(C(N)=O)c32)c1C1(C)CCN(C(C)C)CC1 [Example 114, 6-fluoro-3-(1-isopropyl-4-methylpiperidin-4-yl)-2-methyl-4H-benzo[4,5]imidazo[1,2-b]pyrazole-8-carboxamide] | 0.001 to 0.1 | 0.001 to 0.1 |  | 
CC1(c2cnn3c2[nH]c2cc(F)cc(C(N)=O)c23)CCN(Cc2nccs2)CC1 [Example 74, 6-fluoro-3-(4-methyl-1-(thiazol-2-ylmethyl)piperidin-4-yl)-4H-benzo[4,5]imidazo[1,2-b]pyrazole-8-carboxamide] | 0.001 to 0.1 | 0.101 to 1 |  | 
C[C@]1(c2nc3c(C(N)=O)cccc3[nH]2)CCCN1 [ABT-888, veliparib, reference compound] |  |  | 0.001 to 0.1 | 
Cn1ncnc1[C@H]1c2n[nH]c(=O)c3cc(F)cc(c23)N[C@@H]1c1ccc(F)cc1 [BMN-673, reference compound] |  |  |  | 0.001 to 0.1

Second part, led by results:

IC50 [1] [µM] | EC50 [2, 3] [µM] | EC50 ([2]; HCC1937 cells, compound 30 min then 1 mM H2O2 10 min, read-out: cellular PARylation EC50) [µM] | SMILES | EC50 [2, 4] [µM]
0.001 to 0.1 | 0.101 to 1 |  | NC(=O)c1cc(F)cc2[nH]c3c(C4CCN(C(=O)C5CC5)CC4)cnn3c12 [Example 8, 3-(1-(cyclopropylcarbonyl)piperidin-4-yl)-6-fluoro-4H-benzo[4,5]imidazo[1,2-b]pyrazole-8-carboxamide] | 
0.001 to 0.1 | 0.001 to 0.1 |  | CC(C)N1CCC(c2cnn3c2[nH]c2cc(F)cc(C(N)=O)c23)C1 (centres unmarked) [Example 22, 6-fluoro-3-(1-isopropylpyrrolidin-3-yl)-4H-benzo[4,5]imidazo[1,2-b]pyrazole-8-carboxamide] | 
0.001 to 0.1 | 0.001 to 0.1 |  | NC(=O)c1cc(F)cc2[nH]c3c(C4CCN(CCO)CC4)cnn3c12 [Example 16, 6-fluoro-3-(1-(2-hydroxyethyl)piperidin-4-yl)-4H-benzo[4,5]imidazo[1,2-b]pyrazole-8-carboxamide] | 
0.001 to 0.1 | 0.001 to 0.1 |  | CC(C)(F)CN1CCC(c2cnn3c2[nH]c2cc(F)cc(C(N)=O)c23)CC1 [Example 7, 6-fluoro-3-(1-(2-fluoro-2-methylpropyl)piperidin-4-yl)-4H-benzo[4,5]imidazo[1,2-b]pyrazole-8-carboxamide] | 
0.101 to 1 | > 1 |  | NC(=O)c1cc(F)cc2[nH]c3c(-c4ccc(F)cc4)cnn3c12 [Example 41, 6-fluoro-3-(4-fluorophenyl)-4H-benzo[4,5]imidazo[1,2-b]pyrazole-8-carboxamide] | 
0.001 to 0.1 | 0.001 to 0.1 |  | CN1CCCC1c1cnn2c1[nH]c1cc(F)cc(C(N)=O)c12 (centres unmarked) [Example 25, 6-fluoro-3-(1-methylpyrrolidin-2-yl)-4H-benzo[4,5]imidazo[1,2-b]pyrazole-8-carboxamide] | 
0.001 to 0.1 | > 1 |  | NC(=O)c1cc(F)cc2[nH]c3c(CNC(=O)C4CC4)cnn3c12 [Example 40, 3-(cyclopropanecarboxamidomethyl)-6-fluoro-4H-benzo[4,5]imidazo[1,2-b]pyrazole-8-carboxamide] | 
0.001 to 0.1 | 0.101 to 1 |  | CC1(c2cnn3c2[nH]c2cc(F)cc(C(N)=O)c23)CCN(CC2(C#N)CC2)C1 (centres unmarked) [Example 102, 3-(1-((1-cyanocyclopropyl)methyl)-3-methylpyrrolidin-3-yl)-6-fluoro-4H-benzo[4,5]imidazo[1,2-b]pyrazole-8-carboxamide] | 
0.001 to 0.1 | 0.101 to 1 |  | NC(=O)c1cc(F)cc2[nH]c3c(C4CCN(C5COC5)CC4)cnn3c12 [Example 11, 6-fluoro-3-(1-(oxetan-3-yl)piperidin-4-yl)-4H-benzo[4,5]imidazo[1,2-b]pyrazole-8-carboxamide] | 
0.001 to 0.1 | 0.101 to 1 |  | CC1(c2cnn3c2[nH]c2cc(F)cc(C(N)=O)c23)CCN(CC2(C#N)CCC2)C1 (centres unmarked) [Example 101, 3-(1-((1-cyanocyclobutyl)methyl)-3-methylpyrrolidin-3-yl)-6-fluoro-4H-benzo[4,5]imidazo[1,2-b]pyrazole-8-carboxamide] | 
0.101 to 1 | > 1 |  | N#Cc1cnn2c1[nH]c1cccc(C(N)=O)c12 [Example 38, 3-cyano-4H-benzo[4,5]imidazo[1,2-b]pyrazole-8-carboxamide] | 
0.101 to 1 | > 1 |  | NC(=O)c1cc(F)cc2c1-n1ncc(C3CCN(CC4CC4)CC3)c1C2(F)F [Example 50, 3-(1-(cyclopropylmethyl)piperidin-4-yl)-4,4,6-trifluoro-4H-pyrazolo[1,5-α]indole-8-carboxamide] | 
0.101 to 1 | > 1 |  | NC(=O)c1cc(F)cc2[nH]c3c(-c4ccc(C5CCCNC5)cc4)cnn3c12 (centres unmarked) [Example 46, 6-fluoro-3-(4-(piperidin-3-yl)phenyl)-4H-benzo[4,5]imidazo[1,2-b]pyrazole-8-carboxamide] | 
 | 0.001 to 0.1 |  | NC(=O)c1cccc2cn(-c3ccc([C@@H]4CCCNC4)cc3)nc12 [MK-4827, niraparib, reference compound] | 
